Blank lines part the entries; values can stand above or below the compound they belong to.
Columns and labels:
HDAC1 [1] = biological target: T1, HDAC1 (Homo sapiens (Human), UniProt Q13547); experiment: IC50 values of comparison compounds B-F (Table 1B); assay type: biochemical; details: comparison compound C, source not stated
Text: (§1) [drawing 62] (see e.g., WO 2015/058106; Fluorescent-intensity-based enzymatic assay, multiple runs; duplicates);

HDAC10 [2] = biological target: T2, HDAC10 (Homo sapiens (Human), UniProt Q969S8); experiment: IC50 values of comparison compounds B-F (Table 1B); assay type: biochemical; details: comparison compound C, source not stated
Text: as §1
Target sequence in this assay (Q969S8 whole entry, species assumed): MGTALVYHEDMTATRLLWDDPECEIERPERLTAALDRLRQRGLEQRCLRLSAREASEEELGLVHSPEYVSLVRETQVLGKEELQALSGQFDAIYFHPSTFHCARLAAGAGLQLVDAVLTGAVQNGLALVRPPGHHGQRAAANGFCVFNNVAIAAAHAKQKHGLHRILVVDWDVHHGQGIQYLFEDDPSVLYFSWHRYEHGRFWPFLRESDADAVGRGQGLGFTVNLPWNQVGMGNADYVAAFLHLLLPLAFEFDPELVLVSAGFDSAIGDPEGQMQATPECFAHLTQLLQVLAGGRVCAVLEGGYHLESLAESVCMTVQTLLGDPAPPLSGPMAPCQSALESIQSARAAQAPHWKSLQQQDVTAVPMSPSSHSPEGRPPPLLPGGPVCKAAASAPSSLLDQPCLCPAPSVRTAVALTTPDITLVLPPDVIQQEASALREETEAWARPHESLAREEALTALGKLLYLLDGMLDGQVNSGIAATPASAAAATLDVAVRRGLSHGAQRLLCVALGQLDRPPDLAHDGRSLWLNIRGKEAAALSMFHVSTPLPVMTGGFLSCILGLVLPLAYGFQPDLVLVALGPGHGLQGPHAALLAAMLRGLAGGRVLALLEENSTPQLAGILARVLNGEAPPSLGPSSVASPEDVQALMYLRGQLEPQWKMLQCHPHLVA

HDAC11 = HDAC11 (Homo sapiens (Human), UniProt Q96DB2); experiment: IC50 values of comparison compounds B-F (Table 1B); assay type: biochemical; details: comparison compound C, source not stated
Text: as §1

HDAC2 [3] = biological target: T3, HDAC2 (Homo sapiens (Human), UniProt Q92769); experiment: IC50 values of comparison compounds B-F (Table 1B); assay type: biochemical; details: comparison compound C, source not stated
Text: as §1

HDAC3 [4] = biological target: T4, HDAC3 (Homo sapiens (Human), UniProt O15379); experiment: IC50 values of comparison compounds B-F (Table 1B); assay type: biochemical; details: comparison compound C, source not stated
Text: as §1

HDAC4 = HDAC4 (Homo sapiens (Human), UniProt P56524); experiment: IC50 values of comparison compounds B-F (Table 1B); assay type: biochemical; details: comparison compound C, source not stated
Text: as §1

HDAC5 = HDAC5 (Homo sapiens (Human), UniProt Q9UQL6); experiment: IC50 values of comparison compounds B-F (Table 1B); assay type: biochemical; details: comparison compound C, source not stated
Text: as §1

HDAC8 = HDAC8 (Homo sapiens (Human), UniProt Q9BY41); experiment: IC50 values of comparison compounds B-F (Table 1B); assay type: biochemical; details: comparison compound C, source not stated
Text: as §1

HDAC9 = HDAC9 (Homo sapiens (Human), UniProt Q9UKV0); experiment: IC50 values of comparison compounds B-F (Table 1B); assay type: biochemical; details: comparison compound C, source not stated
Text: as §1

HDAC6 [5] = biological target: HDAC6 (Homo sapiens (Human), UniProt Q9UBN7); details: read-out: HDAC6 IC50; comparison compound C, source not stated
HDAC1 [6] = biological target: T1, HDAC1; experiment: IC50 assay, BPS Biosciences fluorescence assay; assay type: biochemical; details: IC50 measured by BPS
HDAC2 [7] = biological target: T3, HDAC2; experiment: IC50 assay, BPS Biosciences fluorescence assay; assay type: biochemical; details: IC50 measured by BPS
HDAC3 [8] = biological target: T4, HDAC3; experiment: IC50 assay, BPS Biosciences fluorescence assay; assay type: biochemical; details: IC50 measured by BPS
HDAC10 [9] = biological target: T2, HDAC10; experiment: IC50 assay, BPS Biosciences fluorescence assay; assay type: biochemical
Target sequence in this assay (Q969S8 whole entry): as the sequence (Q969S8 whole entry, species assumed) above

HDAC1 [10] = biological target: T1, HDAC1; experiment: IC50 assay by Nanosyn (Caliper microfluidics mobility shift detection); assay type: biochemical; details: IC50 measured by Nanosyn
Experimental: (§2) IC50 measurements were conducted by BPS Biosciences (Table 1) or by Nanosyn (Table 1A) with an established fluorescence assay. […] A=Martinostat (Caliper (microfluidics mobility shift detection) by Nanosyn (same run, duplicates));

HDAC10 [11] = biological target: T2, HDAC10; experiment: as above; assay type: biochemical; details: IC50 measured by Nanosyn
Experimental: as §2
Target sequence in this assay (Q969S8 whole entry): as the sequence (Q969S8 whole entry, species assumed) above

HDAC2 [12] = biological target: T3, HDAC2; experiment: as above; assay type: biochemical; details: IC50 measured by Nanosyn
Experimental: as §2

HDAC3 [13] = biological target: T4, HDAC3; experiment: as above; assay type: biochemical; details: IC50 measured by Nanosyn
Experimental: as §2

[14] = Brain penetrance comparison; details: in vivo
[15] = test system: Human iPSC-derived neural progenitor cells; experiment: Acetylation level assay (Western blot); assay type: cell-based; details: 6 h at 37° C.
HDAC6 [16] = biological target: HDAC6 (Rattus norvegicus (Rat), UniProt A0A8I6GM68); experiment: Autoradiography competition with radiolabeled Example 2 on rat brain slices; assay type: binding, Sprague-Dawley rat; details: blocking compound at 1 μM
Experimental: Sagittal slices of Sprague-Dawley rat brains were sectioned (10 μm) with a cryostat (Thermo Scientific HM550) and mounted onto ColorFrost Plus microscope slides (Fisher Scientific 12-550-18) and stored at −20° C. […] After 15 min, 50 μCi of the radiolabeled compound of Example 2 was added to each bath. After 15 minutes, all slides were washed by dipping 10× into buffer and subsequently submerged in 50 mL baths of buffer at 4° C. for 5 minutes. The slides were dried at 35° C. in a vacuum chamber. A phosphorus screen (Perkin Elmer 7001723) was exposed with the slides for 45 minutes and subsequently imaged with a Cyclone Plus Storage Phosphor (Perkin Elmer) detector. ImageJ was used to apply a Gaussian blur (3.0 radius) smoothing and a lookup table (Royal) with equivalent thresholds for brightness was applied. Raw intensity values from gray and white matter were quantified with the ImageJ measurement tool.

PET/CT imaging in rats = assay type: in vivo, Sprague-Dawley rats
Experimental: 8 male Sprague-Dawley rats (Charles River Laboratories) were used for PET imaging. […] For intravenous administration, a catheter with an extension line was placed in a lateral tail vein. Each animal received a bolus injection of either vehicle (1:1:8 DMSO/Tween80/saline) or blocking agent in solution (1 mg/kg, 1 mg/mL in 1:1:8 DMSO/Tween80/saline) immediately prior to injection of the radiotracer.
After injection of a radiotracer bolus ([…] Example 2) a 90 min dynamic PET scan was acquired in pairs for all animals. PET scans were performed on a GammaMedica Triumph PET/CT/SPECT scanner, corrected for attenuation with a μ-map derived from the corresponding CT image, which was acquired immediately following the PET scan. The dynamic PET data was binned into 38 timeframes (8×15 s, 8×1 min, 10×2 min, 12×5) and reconstructed individually via an iterative MLEM (maximum likelihood expectation maximization) algorithm in 16 iterations.
PET images were to the CT image acquired from the same animal using AMIDE Data sets were cropped and all further image analysis was conducted using PMOD 3.3 (PMOD Technologies, Zurich, Switzerland). For maximum consistency, the data were coregistered to the Schiffer Px Rat rat brain template and data was derived from a whole brain VOI (volumes of interest) for time activity curves.

[17] = male, C57BL/6, mouse, in vivo, po, 5 mg/kg
in vivo = details: C57BL/6, mouse
in vitro [18] = details: rat, microsomes
in vitro [19] = details: mouse, microsomes
Microsome stability = details: human, microsomes
Hepatocyte stability = details: human, hepatocytes
[20] = test system: DiscoverX Safety47 panel: 24 GPCRs, 2 nuclear hormone receptors, 3 neurotransmitter transporters, 8 ion channels, 4 kinases, 6 other enzymes; experiment: Safety (DiscoverX Safety47 Panel); details: at 10 μM; 78 assays

T1 sequence (Q13547 whole entry): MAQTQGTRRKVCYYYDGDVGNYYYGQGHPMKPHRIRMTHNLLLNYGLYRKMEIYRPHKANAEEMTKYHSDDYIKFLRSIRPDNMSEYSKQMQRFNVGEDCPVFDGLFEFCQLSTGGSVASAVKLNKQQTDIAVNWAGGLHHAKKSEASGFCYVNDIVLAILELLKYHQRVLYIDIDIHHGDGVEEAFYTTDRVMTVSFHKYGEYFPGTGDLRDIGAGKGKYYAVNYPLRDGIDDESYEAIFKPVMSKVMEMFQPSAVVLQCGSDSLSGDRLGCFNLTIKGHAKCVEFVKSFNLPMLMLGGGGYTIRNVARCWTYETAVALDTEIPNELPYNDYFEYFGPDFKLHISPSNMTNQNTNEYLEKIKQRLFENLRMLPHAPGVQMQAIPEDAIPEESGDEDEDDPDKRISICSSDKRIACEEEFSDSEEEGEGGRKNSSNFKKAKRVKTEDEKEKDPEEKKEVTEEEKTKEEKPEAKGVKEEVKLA
T3 sequence (Q92769 whole entry): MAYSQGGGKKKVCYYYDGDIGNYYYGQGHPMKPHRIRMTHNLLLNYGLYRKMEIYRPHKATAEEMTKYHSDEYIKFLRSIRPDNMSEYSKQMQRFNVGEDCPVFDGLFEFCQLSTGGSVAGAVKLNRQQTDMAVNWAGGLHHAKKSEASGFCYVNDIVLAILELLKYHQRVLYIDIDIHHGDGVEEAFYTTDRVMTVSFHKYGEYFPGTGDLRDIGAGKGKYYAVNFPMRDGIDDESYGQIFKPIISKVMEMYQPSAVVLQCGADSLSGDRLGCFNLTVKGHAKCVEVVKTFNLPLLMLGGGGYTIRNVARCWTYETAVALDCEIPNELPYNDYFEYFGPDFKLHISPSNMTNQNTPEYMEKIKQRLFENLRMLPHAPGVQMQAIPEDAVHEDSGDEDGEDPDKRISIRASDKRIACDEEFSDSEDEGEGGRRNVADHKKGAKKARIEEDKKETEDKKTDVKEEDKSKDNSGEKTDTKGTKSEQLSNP
T4 sequence (O15379 whole entry): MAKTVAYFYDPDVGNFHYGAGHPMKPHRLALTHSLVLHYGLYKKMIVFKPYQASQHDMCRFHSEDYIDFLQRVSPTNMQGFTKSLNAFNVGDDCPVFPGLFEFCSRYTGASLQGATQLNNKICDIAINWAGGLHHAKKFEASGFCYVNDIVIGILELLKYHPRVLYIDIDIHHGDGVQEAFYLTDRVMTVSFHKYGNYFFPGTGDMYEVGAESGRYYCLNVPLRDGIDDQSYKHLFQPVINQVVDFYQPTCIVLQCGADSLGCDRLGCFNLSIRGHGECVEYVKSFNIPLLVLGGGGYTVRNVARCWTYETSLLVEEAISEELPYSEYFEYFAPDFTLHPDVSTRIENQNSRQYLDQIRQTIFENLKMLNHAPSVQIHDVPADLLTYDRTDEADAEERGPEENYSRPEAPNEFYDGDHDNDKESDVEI
T4 sequence (Q9Y618 395-489 partner): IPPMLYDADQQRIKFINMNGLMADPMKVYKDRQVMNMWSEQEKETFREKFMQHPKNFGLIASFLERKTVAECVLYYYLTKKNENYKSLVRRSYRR
Chain of HDAC11 (Q96DB2 whole entry, species assumed): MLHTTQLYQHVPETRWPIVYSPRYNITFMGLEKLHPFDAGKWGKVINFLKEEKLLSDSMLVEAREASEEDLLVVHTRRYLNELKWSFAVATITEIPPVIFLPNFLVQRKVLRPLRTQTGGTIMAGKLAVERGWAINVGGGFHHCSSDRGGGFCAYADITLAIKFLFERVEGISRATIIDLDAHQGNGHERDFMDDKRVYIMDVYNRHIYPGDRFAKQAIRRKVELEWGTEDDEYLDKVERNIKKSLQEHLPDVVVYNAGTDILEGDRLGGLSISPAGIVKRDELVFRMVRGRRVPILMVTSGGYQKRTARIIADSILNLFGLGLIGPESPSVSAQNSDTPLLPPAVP
Chain of HDAC6 (Rattus norvegicus (Rat), UniProt A0A8I6GM68) (A0A8I6GM68 whole entry): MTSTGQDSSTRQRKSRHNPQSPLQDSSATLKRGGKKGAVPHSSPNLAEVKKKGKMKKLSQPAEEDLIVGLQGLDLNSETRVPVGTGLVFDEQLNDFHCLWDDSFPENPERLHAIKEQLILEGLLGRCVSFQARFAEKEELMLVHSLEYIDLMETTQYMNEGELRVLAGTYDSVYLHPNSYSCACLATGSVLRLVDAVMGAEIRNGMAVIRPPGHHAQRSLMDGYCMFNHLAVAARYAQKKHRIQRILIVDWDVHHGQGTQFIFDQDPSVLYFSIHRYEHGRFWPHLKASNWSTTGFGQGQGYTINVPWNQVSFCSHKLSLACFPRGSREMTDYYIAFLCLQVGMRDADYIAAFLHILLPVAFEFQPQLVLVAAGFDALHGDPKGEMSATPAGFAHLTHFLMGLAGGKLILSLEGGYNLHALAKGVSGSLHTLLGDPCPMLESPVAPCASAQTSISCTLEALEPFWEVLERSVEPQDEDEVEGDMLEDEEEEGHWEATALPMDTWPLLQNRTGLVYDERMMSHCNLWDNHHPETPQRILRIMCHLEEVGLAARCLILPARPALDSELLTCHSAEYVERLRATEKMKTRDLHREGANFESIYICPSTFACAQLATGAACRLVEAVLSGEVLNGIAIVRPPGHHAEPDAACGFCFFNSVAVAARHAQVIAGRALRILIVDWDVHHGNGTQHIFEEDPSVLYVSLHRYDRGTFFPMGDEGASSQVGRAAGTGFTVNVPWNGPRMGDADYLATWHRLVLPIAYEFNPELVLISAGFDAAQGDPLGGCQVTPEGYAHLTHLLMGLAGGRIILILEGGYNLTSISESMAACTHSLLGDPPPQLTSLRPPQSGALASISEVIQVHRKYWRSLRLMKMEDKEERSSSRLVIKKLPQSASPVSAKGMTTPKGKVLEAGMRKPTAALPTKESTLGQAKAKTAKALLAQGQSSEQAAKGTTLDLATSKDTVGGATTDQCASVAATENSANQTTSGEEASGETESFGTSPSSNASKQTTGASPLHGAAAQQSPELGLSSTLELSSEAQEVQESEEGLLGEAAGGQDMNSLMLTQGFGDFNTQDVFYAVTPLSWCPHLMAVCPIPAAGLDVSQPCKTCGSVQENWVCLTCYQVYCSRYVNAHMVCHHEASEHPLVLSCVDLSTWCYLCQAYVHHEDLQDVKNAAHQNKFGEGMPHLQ
Chain of HDAC5 (Q9UQL6 whole entry): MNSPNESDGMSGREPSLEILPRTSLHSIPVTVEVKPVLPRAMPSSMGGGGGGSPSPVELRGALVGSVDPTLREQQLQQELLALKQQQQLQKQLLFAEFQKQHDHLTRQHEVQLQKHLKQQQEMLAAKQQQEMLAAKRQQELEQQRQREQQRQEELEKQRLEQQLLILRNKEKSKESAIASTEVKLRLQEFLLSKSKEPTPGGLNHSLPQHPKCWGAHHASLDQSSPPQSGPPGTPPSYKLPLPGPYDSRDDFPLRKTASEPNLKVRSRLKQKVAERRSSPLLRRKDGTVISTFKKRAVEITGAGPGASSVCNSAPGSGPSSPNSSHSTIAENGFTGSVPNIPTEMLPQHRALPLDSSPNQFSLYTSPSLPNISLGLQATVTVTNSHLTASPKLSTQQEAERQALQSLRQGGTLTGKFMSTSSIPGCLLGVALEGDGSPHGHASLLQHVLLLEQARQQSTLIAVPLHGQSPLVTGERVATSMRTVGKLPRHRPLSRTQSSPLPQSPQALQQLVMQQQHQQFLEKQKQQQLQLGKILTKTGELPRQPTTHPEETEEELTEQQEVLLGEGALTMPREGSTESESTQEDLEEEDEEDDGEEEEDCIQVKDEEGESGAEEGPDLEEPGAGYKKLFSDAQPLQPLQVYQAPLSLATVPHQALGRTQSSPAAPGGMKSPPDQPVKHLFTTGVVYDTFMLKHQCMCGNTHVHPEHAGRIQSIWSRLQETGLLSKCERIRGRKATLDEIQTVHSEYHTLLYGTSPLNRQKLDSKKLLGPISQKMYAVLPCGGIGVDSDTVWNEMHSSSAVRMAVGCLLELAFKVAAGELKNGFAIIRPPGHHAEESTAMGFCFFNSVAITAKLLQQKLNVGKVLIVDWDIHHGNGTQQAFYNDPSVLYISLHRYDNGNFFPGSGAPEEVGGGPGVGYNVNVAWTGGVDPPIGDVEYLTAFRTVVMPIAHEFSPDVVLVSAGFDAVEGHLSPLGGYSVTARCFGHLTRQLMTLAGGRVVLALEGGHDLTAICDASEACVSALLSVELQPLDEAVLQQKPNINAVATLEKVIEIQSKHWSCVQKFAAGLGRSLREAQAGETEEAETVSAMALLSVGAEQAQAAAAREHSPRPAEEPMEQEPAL

- IC50 (HDAC1 [1]): 0.02 µM
- IC50 (HDAC10 [2]): 0.025 µM
- IC50 (HDAC11): 3.6 µM
- IC50 (HDAC2 [3]): 0.065 µM
- IC50 (HDAC3 [4]): 0.024 µM
- IC50 (HDAC4): 0.034 µM
- IC50 (HDAC5): 0.121 µM
- IC50 (HDAC8): 0.364 µM
- IC50 (HDAC9): 0.052 µM
- IC50 (HDAC6 [5]): 0.033 µM
SMILES: CN(c1ncc(C(=O)NO)cn1)C12CC3CC(CC(C3)C1)C2 [C]

SMILES: CN(Cc1ccc(C(=O)NO)cc1F)CC12CC3CC(CC(C3)C1)C2 [Example 1, 4-(((((3s)-Adamantan-1-yl)methyl)(methyl)amino)methyl)-3-fluoro-N-hydroxybenzamide]
- IC50 (HDAC1 [6]): > 1 µM
- IC50 (HDAC2 [7]): > 1 µM
- IC50 (HDAC3 [8]): > 1 µM
- IC50 (HDAC10 [9]; BPS Biosciences, unit mM printed in cell): > 1 mM
- IC50 (HDAC10 [9]; IC50 measured by BPS): > 0.001 mM
- inhibition at 1000 µM (HDAC10 [9]; read-out: HDAC10 Percentage Inhibition): 21%
- IC50 (HDAC1 [10]): > 1 µM
- IC50 (HDAC10 [11]): > 1 µM
- IC50 (HDAC2 [12]): > 1 µM
- IC50 (HDAC3 [13]): > 1 µM
- Brain-penetrant? [14]: +++
- Histone acetylation (H3K9 and H4K12) ([15]; 10 μM): remained unaltered
- amount of cellular acetyl-α-Tubulin ([15]; ACY1215 5 μM, other compounds 10 μM): increased
- binding of radiolabeled Example 2 to rat brain slices (HDAC6 [16]): significantly reduced
- effect on time activity curve of radiolabeled Example 2 (PET/CT imaging in rats; 1 mg/kg, 30-minutes post radiotracer administration): clear deflection of the time activity curve
- effect on brain uptake of radiolabeled Example 2 (PET/CT imaging in rats; non-radioactive compound at 1 mg/kg): blocking of brain uptake
- T1/2 [17]: 15 min
- bioavailability (in vivo; po): 10%
- half-life (in vivo; male, ip, 5 mg/kg): 4.8 min
- half-life (in vivo; male, po, 5 mg/kg): 15 min
- Cmax (in vivo; male, po, 5 mg/kg, Cmax): 0.46 µM
- half-life (in vitro [18]): < 10 min
- half-life (in vitro [19]): < 10 min
- half-life (Microsome stability): 19 min
- half-life (Hepatocyte stability): 20 min
- Safety (DiscoverX Safety47 Panel) [20]: No effect at 10 μM

— patent publication US11207431B2, “HDAC6 inhibitors and imaging agents” (The General Hospital Corporation, priority 2017, dated 2021)
